Two compounds from article PMC12426922, “Fingerprinting the Intestinal Transport of Low-Molecular-Mass Advanced Glycation End-Products (AGEs) Using a Caco‑2 Transwell Model” (Journal of Agricultural and Food Chemistry, 2025) can be followed below.

The subject of data set [1] is differentiated Caco-2 cells. Briefly: WST-1 cytotoxicity assay, viability of differentiated Caco-2 cells after 2 h exposure. The data set is classed as cell-based, Human. The settings on record: for the mixture: concentration of each AGE. The method, then: (§1) Human colon carcinoma cells (Caco-2 cells) were obtained from the American Type Culture Collection (ATCC, Rockville, MD, USA). Caco-2 cells were cultured in complete culture medium, composed of DMEM GlutaMAX with 10% FBS (v/v), 1% P/S (v/v), and 1% NEAA (v/v) at 37 °C in a 5% (v/v) CO2 incubator. In this study, Caco-2 cells within passages 10–15 were utilized.
The WST-1 assay was used to quantify the viability of differentiated Caco-2 cells upon exposure to the individual AGEs and their equimolar mixture. To this end, Caco-2 cells were seeded in 96-well plates at 3 × 10^4 cells/well (100 μL) and incubated at 37 °C under 5% (v/v) CO2 for 20 days. The complete culture medium was refreshed on each alternate day. After full differentiation, the culture medium was removed, and the cells were washed with HBSS (containing 1% (v/v) HEPES) twice on the testing day. The same volume (100 μL) of HBSS containing a series of concentrations of the different individual test compounds or of a mixture containing all 10 AGEs was added from a 20-times-concentrated stock solution in HBSS. The test concentrations were designed based on the estimated daily intake of total AGEs (0.55–0.66 mg/(kg·day)) and high-exposure scenarios (1.4–1.8 mg/(kg day)). […] After exposure for 2 h, the absorbance at 440 and 620 nm was measured in a plate spectrophotometer (Molecular Devices, San Jose, CA, USA, Spectra Max M2). After measurement, the cell viability was calculated as cell viability (%)=(Atested 440 nm−Atested 620 nm)/(Acontrol 440 nm−Acontrol 620 nm)×100
A general note: Formazan colour is commonly taken as a measure of viable cells.

Data set [2] can be described thus: Transport of AGE mixture across Caco-2 cell layer (transwell, apical to basolateral). The data set is classed as in vitro ADME, Human. The settings on record: human; for recovery at 2 h, 100 μmol/L: read-out: percentage of the amount added at the apical side at t = 0: recovery; for Papp at 120 min, 100 μmol/L: data from 120 min. The method, then: as §1
(§2) Caco-2 cells were cultured until reaching 50%–60% confluence (undifferentiated Caco-2 cells), followed by trypsinization. Then, cells were seeded at 3 × 10^4 cells per insert in 100 μL of complete culture medium into the transwell inserts of a 24-well transwell plate, and 600 μL of complete culture medium was added to the basolateral compartments. In both the apical and basolateral compartments, the medium was renewed every other day. After 2 weeks, the transepithelial electrical resistance (TEER) value was measured using a Millicell ERS-2 Electrical Resistance System (Burlington, MA, USA) every other day. Only wells with a TEER value of >400 Ω/cm^2 were used for transport experiments. Moreover, the TEER value was measured before and after the transport experiment to ascertain that the Caco-2 cell layer remained intact during the whole transport experiment.
(§3) Transport experiments were performed after 20 days of differentiation of the Caco-2 cells. The culture medium was replaced with HBSS (containing 1% (v/v) HEPES) 30 min prior to testing in both the apical and basolateral compartments. After the 30 min preincubation, 100 μL of HBSS containing a mixture of the 10 different AGEs including CML, CEL, GALA, argpyrimidine, MG-H1, GOLD, GOLA, MOLD, pentosidine, and pyrraline, each at 100 μmol/L, was added to the apical compartment after removing the preincubation medium, while the basolateral medium was replaced by 600 μL of HBSS. […] At 120 min, a 10 μL sample from the apical side was taken for calculating apical side retention (nontransported percentage).
(§4) The apparent permeability coefficient (Papp) value was calculated according to the methodology described by Yee.
(§5) AGEs were quantified by LC-MS using a Shimadzu Nexera XR LC-40D XR UPLC system (Kyoto, Japan) equipped with a UPLC Amide column (100 mm × 2.1 mm, 1.7 μm) without derivatization coupled with a Shimadzu LCMS-8045 triple quadrupole mass spectrometer (Kyoto, Japan). The analytical column was maintained at 40 °C throughout the quantification process. A multistep binary gradient system of water containing 0.1% (v/v) formic acid (solvent A) and acetonitrile containing 0.1% (v/v) formic acid (solvent B) was used. In the whole gradient program, the total proportion of solvents A and B is always equal to 100%. The gradient program was designed as follows: 75% solvent B to 12.5% solvent B from 0 to 10 min, followed by 12.5% solvent B from 10 to 11 min. […] The initial flow rate was set to 0.30 mL/min. Subsequently, it was reduced to 0.25 mL/min at 0.3 min, which was kept until 10 min. Afterward, there was a gradual decrease, reaching 0.15 mL/min at 11 min, and this rate was maintained until 12 min. […] Between 1 and 11 min of gradient running, the line was set to MS, and for the other time periods, the line was set to waste. The retention time and mass spectrometry parameters of individual AGEs are listed in Table S1 and the chromatograms of the samples are shown in Figure S1.
Background: Caco-2 monolayers are a common model of the intestinal barrier.

In the next data set the test system is Caco-2 cell layer. Described as above. The settings on record: for percentage of the amount added at the apical side at t = 0: apical side / percentage of the amount added at the apical side at t = 0: basolateral side / percentage of the amount added at the apical side at t = 0: apical side (nontransported) / percentage of the amount added at the apical side at t = 0: basolateral side (transported): mixture, each AGE 100 μmol/L, 2 h; for percentage of the amount added at the apical side at t = 0: apical side (nontransported) / percentage of the amount added at the apical side at t = 0: basolateral side (transported): standard treatment. Type of data set: in vitro ADME, Human. The method, then:
as §1, §2, §3, §4, §5

Another data set deals with PepT1. Described as above. Particulars: human, mixture, each AGE 100 μmol/L; for recovery at 2 h, 100 μmol/L: Caco-2, with Gly-Sar 10 mmol/L (apical compartment), Gly-Sar 10 mmol/L, read-out: percentage of the amount added at the apical side at t = 0: recovery; for Papp at 120 min, 100 μmol/L: Caco-2, with Gly-Sar 10 mmol/L (apical), 10 mmol/L Gly-Sar apical (PepT1 inhibition), data from 120 min. Type of data set: in vitro ADME, Human. On the procedure:
as §1, §2, §3, §4, §5

The next data set deals with Caco-2 cell monolayer. Briefly: Accumulation of AGEs in the Caco-2 cell monolayer after transport experiment. The data set is classed as in vitro ADME, Human. Particulars: 2 h; for percentage of the amount added at the apical side at t = 0: accumulation / percentage of the amount added at the apical side at t = 0: accumulation (intracellular): mixture, each AGE 100 μmol/L. The method, then:
After the transport experiment, the cell monolayer on the inset membrane was washed three times with HBSS and three times with PBS. […] The samples were subsequently centrifuged at 16 000g for 20 min at 4 °C, and the supernatant was collected for further analysis by LC-MS.
as §5, with “The” for “AGEs were quantified by LC-MS using a Shimadzu Nexera XR LC-40D XR UPLC system (Kyoto, Japan) equipped with a UPLC Amide column (100 mm × 2.1 mm, 1.7 μm) without derivatization coupled with a Shimadzu LCMS-8045 triple quadrupole mass spectrometer (Kyoto, Japan). The”, “100%.” for “100%. The gradient program was designed as follows: 75% solvent B to 12.5% solvent B from 0 to 10 min, followed by 12.5% solvent B from 10 to 11 min.”

The mark [3] stands for this setting: Caco-2, 4 °C, mixture, each AGE 100 μmol/L.
The mark [4] stands for this setting: Caco-2, cytochalasin D pretreatment, mixture, each AGE 100 μmol/L.
Where [5] appears, read: Caco-2, standard treatment (37 °C), equimolar mixture of 10 AGEs, each 100 μmol/L apical.
The mark [6] stands for this setting: Caco-2, standard treatment, mixture, each AGE 100 μmol/L.
[7] abbreviates: Caco-2, cytochalasin D 1 μg/mL, 30 min apical preincubation, mixture, each AGE 100 μmol/L.

Molecules are shown by their SMILES. Several values for one entry are separate records, joined by “and”; a condition that tells them apart may be missing. Identical values can stand only once. Like-named read-outs stand apart in the source and are kept apart here. Marks after values point to notes of the source that are not given here. A value given as a limit tells only on which side of the number the result lay.

A word on the Papp: it is a coefficient for how fast a substance crosses the barrier. Regarding `CC(NCCCC[C@H](N)C(=O)O)C(=O)O` (some centres unmarked) [CEL, N-ε-(carboxyethyl)-lysine], the “concentration that did not significantly affect cell viability” value in data set [1] was at most 1500 µM. Further, the recovery at 2 h, 100 μmol/L in data set [2] (setting [3]) stood at 89.1 ± 9.1%; in data set [2] (setting [4]), 95.5 ± 5.1%; in data set [2] (setting [6]), 96.5 ± 7.2%; in the data set with PepT1, 89.5 ± 4.8%. Moreover, the Papp at 120 min, 100 μmol/L in data set [2] (setting [3]) came out at 0.105 ×10⁻⁶ cm/s; in data set [2] (setting [5]), 0.164 ×10⁻⁶ cm/s; in data set [2] (setting [7]), 0.507 ×10⁻⁶ cm/s; in the data set with PepT1 it was 0.149 ×10⁻⁶ cm/s. The “percentage of the amount added at the apical side at t = 0: apical side” value in the data set on Caco-2 cell layer (4 °C) is 88.8 ± 9.1 ^a %; in the data set with Caco-2 cell layer (cytochalasin D pretreatment), 93.1 ± 4.7 ^a %. The “percentage of the amount added at the apical side at t = 0: basolateral side” value is 0.3 ± 0.1 ^a % in the data set with Caco-2 cell layer (4 °C), 0.4 ± 0.1 ^a % with Caco-2 cell layer (Gly-Sar 10 mmol/L) and 1.2 ± 0.6 ^b % with Caco-2 cell layer (cytochalasin D pretreatment). Besides, the “percentage of the amount added at the apical side at t = 0: apical side (nontransported)” value in the data set with Caco-2 cell layer is reported as 95.0 ± 7.00 ^a %. Besides, the “percentage of the amount added at the apical side at t = 0: basolateral side (transported)” value with Caco-2 cell layer is listed as 0.4 ± 0.2 ^a %. Further, the “percentage of the amount added at the apical side at t = 0: accumulation” value with Caco-2 cell monolayer (4 °C) is recorded as 0.0 ± 0.0 ^b %; in the data set on Caco-2 cell monolayer (Gly-Sar 10 mmol/L) it was 1.3 ± 0.2 ^a %; in the data set with Caco-2 cell monolayer (cytochalasin D pretreatment), 1.2 ± 0.2 ^a %. Besides, the “intracellular accumulation relative to CML” value with Caco-2 cell monolayer (standard treatment) is on record as “about half that observed of CML”. In the data set on Caco-2 cell monolayer (standard treatment), the “percentage of the amount added at the apical side at t = 0: accumulation (intracellular)” value is reported as 1.1 ± 0.2 ^a %.
As to `N[C@@H](CCCCNC(=O)CO)C(=O)O` [GALA, glycolic acid–lysine–amide], the “concentration that did not significantly affect cell viability” value in data set [1] was at most 1500 µM. The recovery at 2 h, 100 μmol/L is 89.3 ± 4.5% in data set [2] (setting [3]), 89.7 ± 4.6% in data set [2] (setting [4]), 86.2 ± 7.1% in data set [2] (setting [6]) and 85.4 ± 3.6% in the data set with PepT1. Moreover, the Papp at 120 min, 100 μmol/L in data set [2] (setting [3]) was 0.095 ×10⁻⁶ cm/s; in data set [2] (setting [5]), 0.448 ×10⁻⁶ cm/s; in data set [2] (setting [7]) it was 0.87 ×10⁻⁶ cm/s; with PepT1, 0.321 ×10⁻⁶ cm/s. Further, in the data set with Caco-2 cell layer (4 °C versus 37 °C), the “effect of 4 °C on transport compared to 37 °C” value was “significantly reduced”. In addition, the results for the “percentage of the amount added at the apical side at t = 0: apical side” value in the data set with Caco-2 cell layer (4 °C), in the data set on Caco-2 cell layer (Gly-Sar 10 mmol/L) and in the data set on Caco-2 cell layer (cytochalasin D pretreatment) were 89.1 ± 4.5 ^a %, 84.4 ± 3.6 ^a % and 87.4 ± 4.3 ^a %, respectively. For the same compound, the figures for the “percentage of the amount added at the apical side at t = 0: basolateral side” value in the data set on Caco-2 cell layer (4 °C), in the data set on Caco-2 cell layer (Gly-Sar 10 mmol/L) and in the data set on Caco-2 cell layer (cytochalasin D pretreatment) were 0.2 ± 0.1 ^c %, 0.8 ± 0.2 ^b % and 2.1 ± 0.8 ^a %, respectively. Besides, the “reduction of the Papp value in the presence of Gly-Sar” value in the data set with Caco-2 cell layer (Gly-Sar 10 mmol/L versus standard) is recorded as 28%. Also, the “percentage of the amount added at the apical side at t = 0: apical side (nontransported)” value in the data set on Caco-2 cell layer is 85.0 ± 7.1 ^a %. The “percentage of the amount added at the apical side at t = 0: basolateral side (transported)” value with Caco-2 cell layer is 1.1% and 1.06% and 1.1 ± 0.3 ^b %. Also, the “percentage of the amount added at the apical side at t = 0: accumulation” value is 0.0 ± 0.0 ^b % in the data set on Caco-2 cell monolayer (4 °C), 0.2 ± 0.1 ^a % in the data set on Caco-2 cell monolayer (Gly-Sar 10 mmol/L) and 0.2 ± 0.1 ^a % in the data set on Caco-2 cell monolayer (cytochalasin D pretreatment). The “percentage of the amount added at the apical side at t = 0: accumulation (intracellular)” value in the data set on Caco-2 cell monolayer (standard treatment) is on record as 0.2 ± 0.1 ^a %.
